From ChEMBL document CHEMBL3739403 (Bioorg Med Chem, 2016) come the findings set out here.

The structures appear in SMILES notation. pIC50: −log10 of the molar value.

In test [1] the target is T1, Prothrombin (Homo sapiens, UniProt P00734). Briefly: Inhibition of thrombin (unknown origin).
Test [2] addresses T1, Prothrombin. Put plainly: Inhibition of human thrombin preincubated for 10 mins using Ac-FVR-AMC as substrate by […] assay. Conditions: for pIC50: read-out: IC50; for IC50: read-out: pIC50 (converted).

Turning to `CCn1c(CNc2ccc(C(=N)N)cc2)nc2cc(C(=O)N(CCC(=O)O)c3ccccc3C(F)(F)F)ccc21`, the pIC50 in test [1] is 8.21.

The compound `CCCCn1c(CNc2ccc(C(=N)N)cc2F)nc2cc(C(=O)N(CCC(=O)O)c3ccc(F)c(Cl)c3)ccc21` showed a pIC50 in test [1] of 7.44.

In turn, `CC(C)n1c(CNc2ccc(C(=N)N)cc2)nc2cc(C(=O)N(CCC(=O)O)c3ccc(F)c(Cl)c3)ccc21` had a pIC50 in test [1] of 7.73.

`Cn1c(CNc2ccc(C(=N)N)cc2)nc2cc(C(=O)N(CCC(=O)O)c3cccc(C(F)(F)F)c3)ccc21` had a pIC50 in test [1] of 7.91.

In the case of `CCn1c(CNc2ccc(C(=N)N)cc2)nc2cc(C(=O)N(CCC(=O)O)c3cccc(C(F)(F)F)c3)ccc21`, the pIC50 in test [1] is 7.58.

With `CCCCn1c(CNc2ccc(C(=N)N)cc2)nc2cc(C(=O)N(CCC(=O)O)c3ccc(F)c(Cl)c3)ccc21`, the pIC50 in test [1] is 7.40.

As to `N=C(N)c1ccc(NCc2nc3cc(C(=O)N(CCC(=O)O)c4ccc(F)c(Cl)c4)ccc3n2C2CC2)cc1`, in test [1], the pIC50 is 7.56.

As to `CCn1c(CNc2ccc(C(=N)N)cc2)nc2cc(C(=O)N(CCC(=O)O)c3cc(F)cc(F)c3)ccc21`, the pIC50 in test [1] is 8.10.

In test [1], `Cn1c(CNc2ccc(C(=N)N)cc2F)nc2cc(C(=O)N(CCC(=O)O)c3ccc(F)c(Cl)c3)ccc21` had a pIC50 of 7.94.

In test [1], `CCn1c(CNc2ccc(C(=N)N)cc2)nc2cc(C(=O)N(CCC(=O)O)c3ccccc3F)ccc21` gave a pIC50 of 8.45.

In test [1], `Cn1c(CNc2ccc(C(=N)N)cc2)nc2cc(C(=O)N(CCC(=O)O)c3cccc(F)c3)ccc21` had a pIC50 of 8.27.

`CCCn1c(CNc2ccc(C(=N)N)cc2)nc2cc(C(=O)N(CCC(=O)O)c3ccc(F)c(Cl)c3)ccc21` showed a pIC50 in test [1] of 7.96.

Consider `Cc1ccnc(N(CCC(=O)O)C(=O)c2ccc3c(c2)nc(CNc2ccc(C(=N)N)cc2F)n3C)c1`, for which the pIC50 in test [1] was 7.62.

`CCCCCn1c(CNc2ccc(C(=N)N)cc2)nc2cc(C(=O)N(CCC(=O)O)c3ccc(F)c(Cl)c3)ccc21` had a pIC50 in test [1] of 6.93.

Turning to `CCn1c(CNc2ccc(C(=N)N)cc2)nc2cc(C(=O)N(CCC(=O)O)c3ccc(F)c(F)c3)ccc21`, in test [1], the pIC50 is 8.02.

As to `Cn1c(CNc2ccc(C(=N)N)cc2)nc2cc(C(=O)N(CCC(=O)O)c3ccc(F)c(F)c3)ccc21`, in test [2], the pIC50 is 8.40 and the IC50 was 3.98 nM.

Compound `CC(C)n1c(CNc2ccc(C(=N)N)cc2F)nc2cc(C(=O)N(CCC(=O)O)c3ccc(F)c(Cl)c3)ccc21` had a pIC50 in test [1] of 7.76.

On to `N=C(N)c1ccc(NCc2nc3cc(C(=O)N(CCC(=O)O)c4ccc(F)c(Cl)c4)ccc3n2C2CC2)c(F)c1`, for which, in test [1], the pIC50 is 7.57.

In test [1], `CCn1c(CNc2ccc(C(=N)N)cc2)nc2cc(C(=O)N(CCC(=O)O)c3ccc(F)cc3)ccc21` had a pIC50 of 8.37.

With `Cn1c(CNc2ccc(C(=N)N)cc2)nc2cc(C(=O)N(CCC(=O)O)c3cc(F)cc(F)c3)ccc21`, the pIC50 in test [1] is 7.98.

The compound `CCn1c(CNc2ccc(C(=N)N)cc2F)nc2cc(C(=O)N(CCC(=O)O)c3cc(C)ccn3)ccc21` showed a pIC50 in test [1] of 7.72.

In test [1], `CCCn1c(CNc2ccc(C(=N)N)cc2F)nc2cc(C(=O)N(CCC(=O)O)c3ccc(F)c(Cl)c3)ccc21` had a negative logarithm of the IC50 (pIC50) of 7.55.

Consider `Cn1c(CNc2ccc(C(=N)N)cc2)nc2cc(C(=O)N(CCC(=O)O)c3ccccc3C(F)(F)F)ccc21`, for which, in test [2], the pIC50 is 8.30 and the IC50 was 5.01 nM.

As to `CCn1c(CNc2ccc(C(=N)N)cc2)nc2cc(C(=O)N(CCC(=O)O)c3cccc(F)c3)ccc21`, in test [1], the pIC50 is 8.13.

`CCn1c(CNc2ccc(C(=N)N)cc2)nc2cc(C(=O)N(CCC(=O)O)c3ccc(OC(F)(F)F)cc3)ccc21` showed a pIC50 in test [1] of 6.93.

On to `CCCCCn1c(CNc2ccc(C(=N)N)cc2F)nc2cc(C(=O)N(CCC(=O)O)c3ccc(F)c(Cl)c3)ccc21`, for which the pIC50 in test [1] was 6.76.

For the compound `CCn1c(CNc2ccc(C(=N)N)cc2)nc2cc(C(=O)N(CCC(=O)O)c3ccc(F)c(Cl)c3)ccc21`, the pIC50 in test [1] was 8.05.

Take `CCn1c(CNc2ccc(C(=N)N)cc2)nc2cc(C(=O)N(CCC(=O)O)c3ccc(C(F)(F)F)cc3)ccc21`: the pIC50 in test [1] is 6.70.

Take `Cn1c(CNc2ccc(C(=N)N)cc2)nc2cc(C(=O)N(CCC(=O)O)c3ccc(F)c(Cl)c3)ccc21`: the negative-log IC50 (pIC50) in test [1] is 8.08.

In test [1], `CCn1c(CNc2ccc(C(=N)N)cc2F)nc2cc(C(=O)N(CCC(=O)O)c3ccc(F)c(Cl)c3)ccc21` showed a negative-log IC50 (pIC50) of 8.69.

With `CCCCCCOC(=O)NC(=N)c1ccc(NCc2nc3cc(C(=O)N(CCC(=O)OCC)c4ccccn4)ccc3n2C)cc1` [DABIGATRAN ETEXILATE], in test [2], the pIC50 was 8.58 and the IC50 was 2.63 nM.

The pIC50 is the IC50 on a negative log10 scale, so that one unit is a factor of ten.
